How the values were obtained:
[1] = tested on: S1507-2; assay: relative IC50 (inflection point of fitted dose-response curve, CellTiter-Glo viability, 72 h; top asymptote may be below 50% inhibition); higher = less potent
In short: (§1)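 Viability was scored by CellTiter-Glo ATP luminescence, scaled from vehicle to positive-control wells, with duplicates averaged where present. The cells, MPNST lines and primary human Schwann cells at 750–1000 per well, sat 72 h at 37 °C, 5% CO2, in 384-well plates preprinted with each compound at five concentrations in 10-fold steps. Four-parameter logistic fits were run on the data. These fits give drug sensitivity score and relative IC50 censored at the top concentration, and percent inhibition is reported at the top concentration.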

[2] = tested on: HS-PSS; assay: as above
In short: as §1

[3] = tested on: STS26T; assay: as above
In short: as §1

[4] = tested on: YST-1; assay: as above
In short: as §1

[5] = tested on: HSC1; assay: as above
In short: as §1

[6] = tested on: HS-Sch-2; assay: as above
In short: as §1

[7] = tested on: S462; assay: as above
In short: as §1

[8] = tested on: HSC2; assay: as above
In short: as §1

[9] = tested on: ST8814; assay: as above
In short: as §1

[10] = tested on: S1507-2; assay: relative IC50 (inflection point of fitted dose-response curve, CellTox-Green cytotoxicity, 72 h; top asymptote may be below 50%); higher = less potent
In short: (§2)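 MPNST cell lines and primary human Schwann cells were incubated 72 h at 37 °C in 384-well plates holding five 10-fold compound dilutions. CellTox-Green was added before seeding at a final 1:1000 dilution and reported fluorescence from DNA released by disrupted cells. Signals were scaled to vehicle and positive-control wells, and cultures failing plate quality control were dropped. Drug sensitivity score and relative IC50 come from four-parameter logistic fits, with IC50 censored at the top concentration.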

[11] = tested on: HS-PSS; assay: as above
In short: as §2

[12] = tested on: STS26T; assay: as above
In short: as §2

[13] = tested on: HSC1; assay: as above
In short: as §2

[14] = tested on: HSC2; assay: as above
In short: as §2

[15] = tested on: ST8814; assay: as above
In short: as §2

Structure (SMILES) | relative IC50 [1] [nM] | relative IC50 [2] [nM] | relative IC50 [3] [nM] | relative IC50 [4] [nM] | relative IC50 [5] [nM] | relative IC50 [6] [nM] | relative IC50 [7] [nM] | relative IC50 [8] [nM] | relative IC50 [9] [nM] | relative IC50 [10] [nM] | relative IC50 [11] [nM] | relative IC50 [12] [nM] | relative IC50 [13] [nM] | relative IC50 [14] [nM] | relative IC50 [15] [nM]
C=CCNC1=C2C[C@@H](C)C[C@H](OC)[C@H](O)[C@@H](C)/C=C(\C)[C@H](OC(N)=O)[C@@H](OC)/C=C\C=C(/C)C(=O)NC(=CC1=O)C2=O [Tanespimycin] | 170 | 157 | 108 | 49.4 | 421 | 128 | 310 | 380 | 158 | 397 | 460 | 160 | 321 | 258 | 729
Cc1cc2c(F)c(Oc3ncnn4cc(OC[C@@H](C)O)c(C)c34)ccc2[nH]1 [Brivanib] | > 1000 | > 1000 | > 1000 | > 1000 | > 1000 | > 1000 | > 1000 | > 1000 | > 1000 | > 1000 | > 1000 | > 1000 | > 1000 | > 1000 | > 1000
CO[C@H]1[C@@H](N(C)C(=O)c2ccccc2)C[C@@H]2O[C@@]1(C)n1c3ccccc3c3c4c(c5c6ccccc6n2c5c31)C(=O)NC4 [Midostaurin] | 282 | 465 | 436 | 163 | 112 | 409 | 580 | 155 | 443 | 395 | > 10000 | 323 | 901 | 243 | 274
Nc1ccccc1NC(=O)c1ccc(CNc2nccc(-c3cccnc3)n2)cc1 [Mocetinostat] | 1840 | 2200 | 1400 | 530 | 921 | 1400 | 354 | 818 | 1610 | 3730 | 2650 | 1720 | 3390 | 2710 | 3100
Nc1ccn([C@@H]2O[C@H](CO)[C@@H](O)C2(F)F)c(=O)n1 [Gemcitabine] | 0.876 | 19.9 | 1.59 | 8.34 | 2.2 | 2.09 | 0.481 | 2 | 4.13 | 2.65 | 50.4 | 1.22 | 8.57 | 5.47 | 3.86
Cc1[nH]c2ccccc2c1CCNCc1ccc(/C=C/C(=O)NO)cc1 [Panobinostat] | 11.2 | 54.8 | 35.4 | 9.07 | 20.8 | 25.4 | 14.2 | 37.2 | 15 | 30.9 | 89.1 | 64.9 | 125 | 122 | 36.6
CC1(COc2ccc3c(c2)ncn3-c2ccc3cccc(N4CCC(N)CC4)c3n2)COC1 [Crenolanib] | 2280 | 3640 | 2710 | 3310 | 2670 | 1250 | 3270 | 2430 | 1750 | 1950 | 3150 | 3240 | 2930 | 3310 | 1980
COc1cc([C@@H]2c3cc4c(cc3[C@@H](O[C@@H]3O[C@@H]5CO[C@@H](c6cccs6)O[C@H]5[C@H](O)[C@H]3O)[C@H]3COC(=O)[C@H]23)OCO4)cc(OC)c1O [Teniposide] | 314 | 1240 | 227 | 50.1 | 68.8 | 482 | 112 | 88.5 | 193 | 1410 | 3010 | 266 | 1150 | 1430 | 219
C#Cc1cccc(Nc2ncnc3cc(OC)c(OCCCCCCC(=O)NO)cc23)c1 [CUDC-101] | 909 | 699 | 1820 | 159 | 470 | 438 | 732 | 545 | 801 | 1810 | 1850 | 2500 | 1130 | 984 | 1270
CC(C)(C)c1cnc(CSc2cnc(NC(=O)C3CCNCC3)s2)o1 [SNS-032] | 141 | 26.7 | 21 | 38.3 | 5.57 | 48.5 | 10.4 | 3.76 | 46.6 | > 10000 | 2450 | 15.9 | 11.9 | 6.74 | 27.2
Nc1nc(NC2CC2)cc(-c2cccc(Cl)c2Cl)n1 [TH588] | 4360 | 3820 | 3710 | 3620 | 5430 | 4160 | 6910 | 4280 | 3830 | 4040 | > 25000 | 3540 | 4520 | 3820 | 5560
COc1cc(Nc2c(C#N)cnc3cc(OCCCN4CCN(C)CC4)c(OC)cc23)c(Cl)cc1Cl [Bosutinib] | 1410 | 3430 | 1270 | 2590 | 1700 | 1600 | 1490 | 1140 | 1460 | 3200 | 3310 | 2950 | 3330 | 3250 | 2410
CO[C@H]1/C=C\C=C(/C)C(=O)NC2=CC(=O)C(NCCN(C)C)=C(C[C@@H](C)C[C@H](OC)[C@H](O)[C@@H](C)/C=C(\C)[C@@H]1OC(N)=O)C2=O [Alvespimycin] | 78.4 | 45.5 | 72 | 24.4 | 132 | 47.3 | 48.1 | 134 | 54.9 | 106 | 49 | 95.7 | 198 | 187 | 106
CC(C)(C#N)c1cc(Cn2cncn2)cc(C(C)(C)C#N)c1 [Anastrozole] | > 10000 | > 10000 | > 10000 | > 10000 | > 10000 | > 10000 | > 10000 | > 10000 | > 10000 | > 10000 | > 10000 | > 10000 | > 10000 | > 10000 | > 10000
NS(=O)(=O)OC[C@@H]1C[C@@H](n2ccc3c(N[C@H]4CCc5ccccc54)ncnc32)C[C@@H]1O [Pevonedistat] | 208 | 89.6 | 520 | 128 | 513 | 46.8 | 95.2 | 380 | 187 | 291 | 222 | 137 | 737 | 1220 | 201
Nc1cc(C(F)(F)F)c(-c2cc(N3CCOCC3)nc(N3CCOCC3)n2)cn1 [Buparlisib] | 1370 | 1750 | 1530 | 844 | 1990 | 1610 | 1790 | 2020 | 1690 | 2960 | > 10000 | 1610 | 2710 | 2210 | 2660
CO[C@H]1C[C@@H]2CC[C@@H](C)[C@@](O)(O2)C(=O)C(=O)N2CCCC[C@H]2C(=O)O[C@H]([C@H](C)C[C@@H]2CC[C@@H](OP(C)(C)=O)[C@H](OC)C2)CC(=O)[C@H](C)/C=C(\C)[C@@H](O)[C@@H](OC)C(=O)[C@H](C)C[C@H](C)/C=C/C=C/C=C/1C [Ridaforolimus] | 1.55 | 1.87 | 0.663 | 1.02 | 0.221 | 2.85 | 1.26 | 0.319 | 0.496 | > 100 | > 100 | > 100 | > 100 | > 100 | > 100
CCCCCCCCc1ccc(CCC(N)(CO)CO)cc1 [Fingolimod] | 2030 | 1890 | 2620 | 2940 | 2150 | 2480 | 3070 | 2340 | 2770 | 1600 | 3160 | 3340 | 1950 | 2220 | 3430
CCOc1cc2ncc(C#N)c(Nc3ccc(OCc4ccccn4)c(Cl)c3)c2cc1NC(=O)/C=C/CN(C)C [Neratinib] | 187 | 160 | 178 | 327 | 251 | 184 | 203 | 211 | 146 | > 1000 | > 1000 | > 1000 | > 1000 | > 1000 | > 1000
COc1ccccc1S(=O)(=O)Nc1ccc2c(c1)CN(C)C(=O)N2 [PFI-1] | 1670 | 3730 | 1470 | 1720 | 2820 | 1670 | 1710 | 2120 | 1530 | 3630 | > 10000 | > 10000 | > 10000 | > 10000 | 2080
COc1c(C)cnc(Cn2cnc3c(Cl)nc(N)nc32)c1C [BIIB021] | 268 | 424 | 247 | 328 | 395 | 95.1 | 186 | 297 | 280 | 484 | 396 | 316 | 217 | 231 | 587
C/C(=C\c1csc(C)n1)[C@@H]1C[C@@H]2O[C@]2(C)CCC[C@H](C)[C@H](O)[C@@H](C)C(=O)C(C)(C)[C@@H](O)CC(=O)N1 [Ixabepilone] | 332 | 392 | 350 | 361 | 115 | 313 | 335 | 248 | 363 | 370 | > 1000 | 316 | 283 | 354 | 341

Source: the supplement of paper PMC5579334
